Measured values: patent US9289411B2, “Anti-HCV agent” (NATIONAL UNIVERSITY CORPORATION OKAYAMA UNIVERSITY, priority 2011, dated 2016)

Assays:
[1] = test system: HCV-RNA replication in ORL11 cells (HCV-O strain, Li23-derived); experiment: microbe, parasite or virus in culture; assay type: cell-based, HCV genotype 1b; details: for EC50: Hepatitis C virus, 72 hours, renilla luciferase activity
Protocol: N-89 was added so as to achieve concentrations of 500 nM, a 2-fold dilution series from 500 nM (250, 125, 63, 31, 16, and 8 nM), and 0. The luciferase activities were measured 72 hours after the culture.
N-251 was added so as to achieve concentrations of 1 μM, a 2-fold dilution series from 1 μM (500, 250, 125, 63, 31, and 16 nM), and 0. The luciferase activities were measured 72 hours after the culture.

[2] = test system: HCV-RNA replication in 1B-4RL cells (HCV-1B-4 strain, Li23-derived); experiment: microbe, parasite or virus in culture; assay type: cell-based, HCV genotype 1b; details: for EC50: Hepatitis C virus, 72 hours, renilla luciferase activity
Protocol: For N-251, the results at concentrations of up to 1.3 μM are shown.

[3] = test system: HCV core protein in HCV-O/RLGE cells; experiment: Western blot analysis of HCV core protein in HCV-O/RLGE cells; assay type: cell-based; details: 72 hours, concentration region in which β-actin did not reduce
Protocol: HCV-O/RLGE cells (Ikeda et al., Liver Int 31:871-880, 2011) were plated onto a 6-well plate (5×10^4 cells in 3 mL of medium for HuH-7 cell line per well) and cultured. […] 72 hours after the culture, the cells were lysed with 100 μL of 2×SDS buffer to prepare a sample for Western blot analysis. The Western blot analysis using an antibody against an HCV core protein (CP11; Institute of Immunology, Tokyo) was performed according to a conventional method. β-Actin was detected with an anti-β-actin antibody (AC-15; Sigma-Aldrich) in a sample diluted 10-fold with 2×SDS buffer.

[4] = test system: HCV-RNA replication in OR6, 1B-4R, AH1R, ORL8, ORL11, 1B-4RL and KAH5RL cells; experiment: Anti-HCV activity summarized over cells derived from various HCV strains (reporter assays); assay type: cell-based, HCV genotype 1b; details: Hepatitis C virus, seven full-length HCV-RNA-replicating cell lines, read-out: EC50 values, range over all cells
[5] = test system: HCV RNA in OL8 cells (HCV-O strain-derived full-length HCV-genome-replicating cells); experiment: Production of cured cells from OL8 cells subcultured for 3 years; assay type: cell-based; details: treated similarly with N-89
Protocol: 4×10^5 ORL8 cells were plated onto a 10-cm plate (10 mL of medium in the absence of G418) (Day 1), and N-89 was added so as to achieve a final concentration of 1 μM the next day (Day 2). After 3 days (Day 5), the cells were diluted 10-fold, and N-89 was added again the next day. This operation was repeated an additional four times (N-89 was added six times in total: Days 2, 6, 10, 14, 18, and 22). At the time of the dilution of the cells (Day 13), which was performed 3 days after the third addition of N-89, the cells were divided into two plates with medium in the presence of G418 (neomycin) (0.3 mg/mL) and medium in the absence of G418. Then, N-89 was added three times, a plurality of plates were prepared at the time of the final dilution of the cells, and finally, one of the plates for each of the media was subjected to CBB staining (Day 26).
Further, cells obtained by subculturing HCV-O strain-derived full-length HCV-genome-replicating cells (OL8 cells and OL11 cells) (Kato et al., Virus Res. 146:41-50, 2009) for 3 years (the cells had acquired the status of genetic diversity (called quasispecies) owing to various mutations in an HCV genome caused by the sustained replication of the HCV genome) were used and similarly treated with N-89.

[6] = test system: HCV-RNA replication in OR6 cells (HCV-O strain, HuH-7-derived); experiment: microbe, parasite or virus in culture; details: for EC50: Hepatitis C virus, OR6, 72 h; for SI (CC50/EC50): OR6 cells
Text: Assay systems using OR6 cells (HCV-O strain), 1B-4R cells (HCV-1B-4 strain), and AH1R cells (HCV-AH1R strain) as HuH-7 cell-derived full-length HCV-RNA-replicating cells, and ORL8 cells (HCV-O strain), ORL11 cells (HCV-O strain), 1B-4RL cells (HCV-1B-4 strain), and KAH5RL cells (HCV-KAH5 strain) as Li23 cell-derived full-length HCV-RNA-replicating cells were used for the quantitative analysis of anti-HCV activity and evaluation of a cytotoxic effect in the present invention. The three cell lines, i.e., the 1B-4R cells, the 1B-4RL cells, and the KAH5RL cells have been disclosed in WO 2010/026965 A1. The AH1R cells may be produced with reference to Mori K et al., BBRC, 371:104-109, 2008 and WO 2010/026965 A1. In addition, all the HCV strains belong to genotype 1b.
As necessary, an increase or decrease in expression level of an HCV protein (core protein) was examined by a Western blot method.
In the measurement of the renilla luciferase activity and the measurement by the WST-1 method, experiments were performed in three wells independent of each other, and their means and standard deviation were calculated.
OR6 cells, which had been cultured in general medium for subculture, were plated onto a 24-well plate (2×10^4 cells in 1 mL of medium for […] cell line per well) and cultured. After 24 hours, N-89 was added so as to achieve concentrations of 20 μM, a 2-fold dilution series from 20 μM (10, 5, 2.5, 1.3, 0.63, and 0.31 μM), and 0, or N-251 was added so as to achieve concentrations of 10 μM, a 2-fold dilution series from 10 μM (5, 2.5, 1.3, 0.63, 0.31, and 0.16 μM), and 0. The renilla luciferase activities were measured 72 hours after the culture. N-89 and N-251 were diluted with DMSO.
The anti-HCV activity of artemisinin was examined using OR6 cells and ORL8 cells and the EC50 values were calculated. An experimental scale and schedule are the same as those in Example 1.
Artemisinin was added so as to achieve concentrations of 100 μM, a 2-fold dilution series from 100 μM (50, 25, 13, 6.3, 3.1, and 1.6 μM), and 0. The luciferase activities were measured 72 hours after the culture.

[7] = test system: HCV-RNA replication in ORL8 cells; experiment: Influence of oxidizing agents KNO3 and NaClO4 on anti-HCV activity in ORL8 cells; assay type: cell-based, HCV genotype 1b; details: N-89 0.5 μM + KNO3 or NaClO4 10 μM, 72 hours
Protocol: The effects of addition of KNO3 and NaClO4 on the anti-HCV activity of N-89 were examined using ORL8 cells.
N-89 and KNO3 or NaClO4 were simultaneously added so that the concentrations of N-89 and KNO3 or NaClO4 were set to 0.5 μM and 10 μM, respectively. The luciferase activity was measured 72 hours after the culture.

SMILES | SI (CC50/EC50) [1] | EC50 [1] [nM] | SI (CC50/EC50) [2] | EC50 [2] [nM] | amount of HCV core protein (Western blot) [3] | EC50 [4] [nM] | production of cured cells [5] | EC50 [6] [nM] | SI (CC50/EC50) [6] | influence of KNO3 or NaClO4 in combination on the anti-HCV activity [7]
C1CCCCCC2(CCCCC1)OOCCCOO2 [N-89, 1,2,6,7-tetraoxaspiro[7,11]nonadecane] | 12 | 45 | 20 | 120 | clearly reduced | 25 to 660 | cured cells were able to be produced | 660 | 14 | no influence
OCCCCCCC1COOC2(CCCCCCCCCCC2)OOC1 [N-251, 6-(1,2,6,7-tetraoxaspiro[7,11]nonadec-4-yl)] | 19 | 59 | 8.3 | 230 | clearly reduced | 59 to 980 | – | 690 | 4.4 | –
